Source: patent US20220323406A1, “METHODS AND COMPOSITIONS FOR DIFFERENTIATING STEM CELLS” (Massachusetts Institute of Technology, priority 2019, published 2022)
Counter-ions that a name gives are not always drawn.

Columns and labels:
[1] = system: ENR+CD organoids (ISC to Paneth cell differentiation); assay: Primary screen: basal (non-stimulated) lysozyme secretion LYZ.NS, 2.5-D 384-well ENR+CD organoid differentiation; format: cell-based, mouse; conditions: primary screen; for Z.LYZ.NS: standard z score
Source text: (§1) High-throughput screening.

[2] = system: ENR+CD organoids; assay: Primary screen: ATP (CellTiter-Glo 3D, CTG) cell number/viability, 2.5-D 384-well ENR+CD organoids; conditions: primary screen;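 also: compounds given at plating and again on day 3 over a 6-day differentiation from ENR+CV stem-cell-enriched precursors, ATP measured on day 6, plate median as control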
[3] = system: ENR+CD organoids (ISC to Paneth cell differentiation); assay: Primary screen: CCh-stimulated lysozyme secretion LYZ.S, 2.5-D 384-well ENR+CD organoid differentiation; format: cell-based, mouse; conditions: primary screen
Source text: as §1

[4] = 1st dose row of the treatment (0.08 uM by row order; dose not reprinted)
[5] = 2nd dose row of the treatment (0.40 uM by row order; dose not reprinted)
[6] = 3rd dose row of the treatment (2.00 uM by row order; dose not reprinted)
[7] = 4th dose row of the treatment (10.00 uM by row order; dose not reprinted)
[8] = dose 0.08 uM, FC vs plate median
[9] = dose 0.40 uM, FC vs plate median
[10] = dose 2.00 uM, FC vs plate median
[11] = dose 10.00 uM, FC vs plate median

C=C1C(=O)O[C@H]2[C@H]1CC/C(C)=C/CC[C@@]1(C)O[C@@H]21 [(−)-Parthenolide]
SSMD.LYZ.NS_Rep (strictly standardized mean difference) [1, 4]: 0.601
SSMD.LYZ.NS_Rep (strictly standardized mean difference) [1, 5]: 0.480
SSMD.LYZ.NS_Rep (strictly standardized mean difference) [1, 6]: 0.920
SSMD.LYZ.NS_Rep (strictly standardized mean difference) [1, 7]: 0.998
Dose.FC.LYZ.NS ([1]; dose 0.08 uM): 0.058 log2 fold change
Z.LYZ.NS (standard z score) ([1]; dose 0.08 uM): 0.506
Dose.FC.LYZ.NS ([1]; dose 0.40 uM): 0.067 log2 fold change
Z.LYZ.NS (standard z score) ([1]; dose 0.40 uM): 0.583
Dose.FC.LYZ.NS ([1]; dose 2.00 uM): 0.089 log2 fold change
Z.LYZ.NS (standard z score) ([1]; dose 2.00 uM): 0.776
Dose.FC.LYZ.NS ([1]; dose 10.00 uM): 0.133 log2 fold change
Z.LYZ.NS (standard z score) ([1]; dose 10.00 uM): 1.159
SSMD.CTG.Rep (strictly standardized mean difference) [2, 4]: 0.498
SSMD.CTG.Rep (strictly standardized mean difference) [2, 5]: 0.736
SSMD.CTG.Rep (strictly standardized mean difference) [2, 6]: 0.482
SSMD.CTG.Rep (strictly standardized mean difference) [2, 7]: 0.257
Dose.FC.CTG ([2]; dose 0.08 uM): 0.135 log2 fold change
Z.CTG (standard z score) ([2]; dose 0.08 uM): 0.322
Dose.FC.CTG ([2]; dose 0.40 uM): 0.228 log2 fold change
Z.CTG (standard z score) ([2]; dose 0.40 uM): 0.544
Dose.FC.CTG ([2]; dose 2.00 uM): 0.157 log2 fold change
Z.CTG (standard z score) ([2]; dose 2.00 uM): 0.376
Dose.FC.CTG ([2]; dose 10.00 uM): 0.157 log2 fold change
Z.CTG (standard z score) ([2]; dose 10.00 uM): 0.374
SSMD.LYZ.S_Rep (strictly standardized mean difference) [3, 4]: 0.679
Z.LYZ.S (standard z score) [3, 4]: 0.799
SSMD.LYZ.S_Rep (strictly standardized mean difference) [3, 5]: 0.763
Z.LYZ.S (standard z score) [3, 5]: 1.067
SSMD.LYZ.S_Rep (strictly standardized mean difference) [3, 6]: 0.506
Z.LYZ.S (standard z score) [3, 6]: 0.441
SSMD.LYZ.S_Rep (strictly standardized mean difference) [3, 7]: 0.345
Z.LYZ.S (standard z score) [3, 7]: 0.530
Dose.FC.LYZ.S ([3]; dose 0.08 uM): 0.124 log2 fold change
Dose.FC.LYZ.S ([3]; dose 0.40 uM): 0.165 log2 fold change
Dose.FC.LYZ.S ([3]; dose 2.00 uM): 0.068 log2 fold change
Dose.FC.LYZ.S ([3]; dose 10.00 uM): 0.082 log2 fold change

COc1ccc2cc([C@H](C)C(=O)O)ccc2c1 [Naproxen]
Z.LYZ.NS ([1]; dose 0.08 uM): 1.226
Z.LYZ.NS ([1]; dose 0.40 uM): 0.930
Z.LYZ.NS ([1]; dose 2.00 uM): −0.698
Z.LYZ.NS ([1]; dose 10.00 uM): −1.064
Dose.FC.LYZ.NS [1, 8]: 0.141 log2 fold change
Dose.FC.LYZ.NS [1, 9]: 0.107 log2 fold change
Dose.FC.LYZ.NS [1, 10]: −0.080 log2 fold change
Dose.FC.LYZ.NS [1, 11]: −0.122 log2 fold change
Dose.FC.CTG [2, 8]: −0.098 log2 fold change
Dose.FC.CTG [2, 9]: −0.068 log2 fold change
Dose.FC.CTG [2, 10]: −0.588 log2 fold change
Dose.FC.CTG [2, 11]: −1.282 log2 fold change
Dose.FC.LYZ.S [3, 8]: 0.067 log2 fold change
Dose.FC.LYZ.S [3, 9]: 0.057 log2 fold change
Dose.FC.LYZ.S [3, 10]: −0.215 log2 fold change
Dose.FC.LYZ.S [3, 11]: −0.215 log2 fold change

Nc1nc(N)c2nc(-c3cccc(O)c3)c(-c3cccc(O)c3)nc2n1 [TG100-115]
Dose.FC.LYZ.NS ([1]; dose 0.08 uM): 0.208 log2 fold change
Z.LYZ.NS (standard z score) ([1]; dose 0.08 uM): 1.812
Dose.FC.LYZ.NS ([1]; dose 0.40 uM): −0.026 log2 fold change
Z.LYZ.NS (standard z score) ([1]; dose 0.40 uM): −0.223
Dose.FC.LYZ.NS ([1]; dose 2.00 uM): 0.003 log2 fold change
Z.LYZ.NS (standard z score) ([1]; dose 2.00 uM): 0.025
Dose.FC.LYZ.NS ([1]; dose 10.00 uM): −0.026 log2 fold change
Z.LYZ.NS (standard z score) ([1]; dose 10.00 uM): −0.223
Dose.FC.CTG ([2]; dose 0.08 uM): −0.256 log2 fold change
Z.CTG (standard z score) ([2]; dose 0.08 uM): −0.611
Dose.FC.CTG ([2]; dose 0.40 uM): 0.066 log2 fold change
Z.CTG (standard z score) ([2]; dose 0.40 uM): 0.158
Dose.FC.CTG ([2]; dose 2.00 uM): −0.013 log2 fold change
Z.CTG (standard z score) ([2]; dose 2.00 uM): −0.031
Dose.FC.CTG ([2]; dose 10.00 uM): −0.116 log2 fold change
Z.CTG (standard z score) ([2]; dose 10.00 uM): −0.277
Dose.FC.LYZ.S ([3]; dose 0.08 uM): 0.073 log2 fold change
Dose.FC.LYZ.S ([3]; dose 0.40 uM): 0.032 log2 fold change
Dose.FC.LYZ.S ([3]; dose 2.00 uM): −0.019 log2 fold change
Dose.FC.LYZ.S ([3]; dose 10.00 uM): −0.100 log2 fold change

Cc1c(-c2ccc(O)cc2)n(Cc2ccc(OCCN3CCCCCC3)cc2)c2ccc(O)cc12 [Bazedoxifene HCl]
Dose.FC.LYZ.NS ([1]; dose 0.08 uM): 0.159 log2 fold change
Z.LYZ.NS (standard z score) ([1]; dose 0.08 uM): 1.386
Dose.FC.LYZ.NS ([1]; dose 0.40 uM): 0.026 log2 fold change
Z.LYZ.NS (standard z score) ([1]; dose 0.40 uM): 0.229
Dose.FC.LYZ.NS ([1]; dose 2.00 uM): −0.146 log2 fold change
Z.LYZ.NS (standard z score) ([1]; dose 2.00 uM): −1.267
Dose.FC.LYZ.NS ([1]; dose 10.00 uM): −0.280 log2 fold change
Z.LYZ.NS (standard z score) ([1]; dose 10.00 uM): −2.442
Dose.FC.CTG ([2]; dose 0.08 uM): 0.422 log2 fold change
Dose.FC.CTG ([2]; dose 0.40 uM): 0.365 log2 fold change
Dose.FC.CTG ([2]; dose 2.00 uM): −0.780 log2 fold change
Dose.FC.CTG ([2]; dose 10.00 uM): −1.148 log2 fold change
Dose.FC.LYZ.S ([3]; dose 0.08 uM): 0.096 log2 fold change
Dose.FC.LYZ.S ([3]; dose 0.40 uM): 0.065 log2 fold change
Dose.FC.LYZ.S ([3]; dose 2.00 uM): −0.189 log2 fold change
Dose.FC.LYZ.S ([3]; dose 10.00 uM): −0.361 log2 fold change

COc1cc(N2CCC(N3CCN(C)CC3)CC2)ccc1Nc1ncc(Cl)c(Nc2ccccc2P(C)(C)=O)n1 [AP26113]
Dose.FC.LYZ.NS ([1]; dose 0.08 uM): −0.013 log2 fold change
Z.LYZ.NS (standard z score) ([1]; dose 0.08 uM): −0.116
Dose.FC.LYZ.NS ([1]; dose 0.40 uM): −0.062 log2 fold change
Z.LYZ.NS (standard z score) ([1]; dose 0.40 uM): −0.541
Dose.FC.LYZ.NS ([1]; dose 2.00 uM): −0.196 log2 fold change
Z.LYZ.NS (standard z score) ([1]; dose 2.00 uM): −1.706
Dose.FC.LYZ.NS ([1]; dose 10.00 uM): −0.272 log2 fold change
Z.LYZ.NS (standard z score) ([1]; dose 10.00 uM): −2.370
Dose.FC.CTG ([2]; dose 0.08 uM): −0.054 log2 fold change
Dose.FC.CTG ([2]; dose 0.40 uM): 0.061 log2 fold change
Dose.FC.CTG ([2]; dose 2.00 uM): −0.558 log2 fold change
Dose.FC.CTG ([2]; dose 10.00 uM): −1.680 log2 fold change
Dose.FC.LYZ.S ([3]; dose 0.08 uM): 0.109 log2 fold change
Dose.FC.LYZ.S ([3]; dose 0.40 uM): −0.038 log2 fold change
Dose.FC.LYZ.S ([3]; dose 2.00 uM): −0.244 log2 fold change
Dose.FC.LYZ.S ([3]; dose 10.00 uM): −0.343 log2 fold change

Cl.N[C@@H]1C[C@H]1c1ccccc1 (racemic) [Tranylcypromine (2-PCPA) HCl]
Dose.FC.LYZ.NS ([1]; dose 0.08 uM): 0.033 log2 fold change
Z.LYZ.NS (standard z score) ([1]; dose 0.08 uM): 0.285
Dose.FC.LYZ.NS ([1]; dose 0.40 uM): −0.049 log2 fold change
Z.LYZ.NS (standard z score) ([1]; dose 0.40 uM): −0.426
Dose.FC.LYZ.NS ([1]; dose 2.00 uM): 0.049 log2 fold change
Z.LYZ.NS (standard z score) ([1]; dose 2.00 uM): 0.423
Dose.FC.LYZ.NS ([1]; dose 10.00 uM): −0.045 log2 fold change
Z.LYZ.NS (standard z score) ([1]; dose 10.00 uM): −0.389
Dose.FC.CTG ([2]; dose 0.08 uM): −0.064 log2 fold change
Z.CTG (standard z score) ([2]; dose 0.08 uM): −0.153
Dose.FC.CTG ([2]; dose 0.40 uM): 0.062 log2 fold change
Z.CTG (standard z score) ([2]; dose 0.40 uM): 0.148
Dose.FC.CTG ([2]; dose 2.00 uM): 0.053 log2 fold change
Z.CTG (standard z score) ([2]; dose 2.00 uM): 0.128
Dose.FC.CTG ([2]; dose 10.00 uM): −0.533 log2 fold change
Z.CTG (standard z score) ([2]; dose 10.00 uM): −1.274
Dose.FC.LYZ.S ([3]; dose 0.08 uM): 0.050 log2 fold change
Dose.FC.LYZ.S ([3]; dose 0.40 uM): −0.037 log2 fold change
Dose.FC.LYZ.S ([3]; dose 2.00 uM): 0.036 log2 fold change
Dose.FC.LYZ.S ([3]; dose 10.00 uM): −0.096 log2 fold change

Cc1cnc(NC(=O)Nc2cc(Br)c(C)cc2OC[C@@H]2CNCCO2)cn1 [LY2603618]
Dose.FC.LYZ.NS (log2 fold change) ([1]; dose 0.08 uM): −0.005
Z.LYZ.NS (standard z score) ([1]; dose 0.08 uM): −0.046
Dose.FC.LYZ.NS (log2 fold change) ([1]; dose 0.40 uM): −0.091
Z.LYZ.NS (standard z score) ([1]; dose 0.40 uM): −0.791
Dose.FC.LYZ.NS (log2 fold change) ([1]; dose 2.00 uM): −0.193
Z.LYZ.NS (standard z score) ([1]; dose 2.00 uM): −1.685
Dose.FC.LYZ.NS (log2 fold change) ([1]; dose 10.00 uM): −0.233
Z.LYZ.NS (standard z score) ([1]; dose 10.00 uM): −2.026
Dose.FC.CTG (log2 fold change) ([2]; dose 0.08 uM): −0.004
Z.CTG (standard z score) ([2]; dose 0.08 uM): −0.010
Dose.FC.CTG (log2 fold change) ([2]; dose 0.40 uM): −0.238
Z.CTG (standard z score) ([2]; dose 0.40 uM): −0.567
Dose.FC.CTG (log2 fold change) ([2]; dose 2.00 uM): −0.396
Z.CTG (standard z score) ([2]; dose 2.00 uM): −0.946
Dose.FC.CTG (log2 fold change) ([2]; dose 10.00 uM): −0.983
Z.CTG (standard z score) ([2]; dose 10.00 uM): −2.347
Dose.FC.LYZ.S (log2 fold change) ([3]; dose 0.08 uM): 0.009
Dose.FC.LYZ.S (log2 fold change) ([3]; dose 0.40 uM): −0.147
Dose.FC.LYZ.S (log2 fold change) ([3]; dose 2.00 uM): −0.269
Dose.FC.LYZ.S (log2 fold change) ([3]; dose 10.00 uM): −0.356
